Measurements reported in US12351574B2, “Selective ligands for modulation of GIRK channels” (Northeastern University, priority 2018, dated 2025).
“Also recorded” adds a separate entry of the source.

Tests used:
[1] = molecular target: T1, GIRK1/2 (UniProt P48542+P48549); assay: two-electrode voltage clamp (TEVC) in Xenopus oocytes expressing GIRK1/2 wild-type; type: cell-based, human GIRK1, mouse GIRK2; design: expressed in transfected cells; host or cells: Xenopus laevis oocytes (cRNA injection); settings: for Emax: ML297 considered 100%, read-out: EMAX at GIRK1/2, % relative to ML297; for selectivity for GIRK1/2 over GIRK1/4 (in words) / EC50: TEVC; for selectivity for GIRK1/2 over GIRK1/4 (in words): GIRK1/2 versus GIRK1/4; for EC50: Xenopus oocytes, GIRK1/2 wild-type; for potency/efficacy compared to GAT1508 (in words) / activation of GIRK1/2 (in words): concentration-response, FIGS. 34A-34I; for EMAX at GIRK1/2: current normalized to basal current
T1 sequence (P48549 1-501): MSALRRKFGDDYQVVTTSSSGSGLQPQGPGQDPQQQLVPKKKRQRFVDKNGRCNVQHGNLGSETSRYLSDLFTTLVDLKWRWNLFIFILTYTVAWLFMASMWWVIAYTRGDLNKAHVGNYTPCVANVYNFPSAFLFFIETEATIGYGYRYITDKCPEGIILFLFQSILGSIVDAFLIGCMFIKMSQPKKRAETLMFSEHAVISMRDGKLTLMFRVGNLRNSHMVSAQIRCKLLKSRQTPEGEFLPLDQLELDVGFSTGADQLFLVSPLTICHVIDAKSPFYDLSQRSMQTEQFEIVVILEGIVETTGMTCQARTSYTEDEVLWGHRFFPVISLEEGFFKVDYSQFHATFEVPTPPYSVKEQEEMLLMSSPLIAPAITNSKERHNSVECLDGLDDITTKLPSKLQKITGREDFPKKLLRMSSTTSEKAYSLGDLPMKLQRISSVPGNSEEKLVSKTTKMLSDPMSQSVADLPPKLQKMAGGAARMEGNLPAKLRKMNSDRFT
T1 sequence (P48542 1-425): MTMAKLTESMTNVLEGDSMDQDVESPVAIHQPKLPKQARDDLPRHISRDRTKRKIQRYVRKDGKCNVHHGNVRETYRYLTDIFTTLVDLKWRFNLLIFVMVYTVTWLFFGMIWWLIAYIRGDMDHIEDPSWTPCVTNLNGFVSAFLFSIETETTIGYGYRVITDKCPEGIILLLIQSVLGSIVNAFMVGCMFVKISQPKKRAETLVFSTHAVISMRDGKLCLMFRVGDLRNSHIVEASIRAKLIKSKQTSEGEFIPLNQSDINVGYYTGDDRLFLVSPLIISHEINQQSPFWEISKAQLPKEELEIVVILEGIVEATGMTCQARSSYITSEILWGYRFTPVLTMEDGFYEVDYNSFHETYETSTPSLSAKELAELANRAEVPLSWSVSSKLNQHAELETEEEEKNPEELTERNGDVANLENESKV
Description: (§1) Molecular biology: For Xenopus oocyte expression, human GIRK1 and human GIRK4 cDNAs were subcloned into pGEMHE. For mammalian expression, human GIRK1 and human GIRK4 cDNAs were subcloned into pcDNA3 and pcDNA3.1/V5-His B, respectively (Invitrogen). Mouse GIRK2 cDNA was subcloned in the dual-function vector, pXoom. Point mutations were introduced using a standard Pfu-based mutagenesis technique according to the QuikChange protocol (Agilent). Mutations were verified by sequencing.
(§2) Xenopus laevis oocyte expression: Plasmid DNAs of GIRK channel subunits were linearized prior to in vitro transcription. Capped RNAs were transcribed using mMESSAGE mMACHINE T7 Transcription Kit (Thermo Fisher Scientific). Xenopus oocytes were surgically extracted, dissociated and defolliculated by collagenase treatment, and microinjected with 50 nl of a water solution containing 1 ng of each GIRK subunit RNA. For TEVC experiments, oocytes were kept 2 days at 17° C. before recording, while for NPo experiments oocytes were incubated for up to 4 days at 17° C.
(§3) Xenopus laevis oocyte expression: All cDNA constructs in the pGEMHE vector were linearized using the NheI restriction enzyme, whereas those in the pXoom vector were linearized using the XhoI restriction enzyme. Linearized cDNAs were in vitro-transcribed using the mMessage mMachine® kit (Ambion) kit. Complementary RNA (cRNA) concentrations were quantified by optical density. Xenopus oocytes were surgically extracted, dissociated, and defolliculated by collagenase treatment and microinjected with 50 nl of the desired cRNAs diluted in RNAase-free water. The use of Xenopus laevis frogs for this study was approved by the Institutional Animal Care and Use Committee (IACUC) at Northeastern University. All constructs used in this study were injected to achieve between 1-2 ng per oocyte depending on the channel. Oocytes were incubated for 2 days at 18° C.
(§4) Electrophysiology of oocytes: Whole-oocyte currents were measured by conventional two-electrode voltage clamp (TEVC) with a GeneClamp 500 amplifier (Axon Instruments). […] Barium-sensitive currents were normalized to average basal current in the vehicle solutions. The HK solution contained the following: 96 mM KCl, 1 mM NaCl, 1 mM MgCl2, 5 mM KOH/HEPES, pH 7.4. The barium solution consisted of HK+10 mM BaCl2. Five to ten oocytes from the same batch (same frog) were recorded for each group, and the experiments were repeated in at least four batches. Data acquisition and analysis were carried out using pClamp9 (Molecular Devices) and OriginPro (Microcal) software.

[2] = molecular target: T2, GIRK1/4 (Homo sapiens, UniProt P48544+P48549); assay: two-electrode voltage clamp (TEVC) in Xenopus oocytes expressing GIRK1/4 wild-type; type: cell-based; design: expressed in transfected cells; host or cells: Xenopus laevis oocytes (cRNA injection); settings: for activation of GIRK1/4 (in words): concentration-response, FIGS. 34A-34I; for Emax: ML297 considered 100%, read-out: EMAX at GIRK1/4, % relative to ML297; for EC50: TEVC, Xenopus oocytes, GIRK1/4 wild-type; for EMAX at GIRK1/4: current normalized to basal current; for modulation of GIRK1/4 channels (in words): Examples 5 and 6, Xenopus oocytes
T2 sequence (P48549 1-501): T1 sequence (P48549 1-501)
T2 sequence (P48544 1-419): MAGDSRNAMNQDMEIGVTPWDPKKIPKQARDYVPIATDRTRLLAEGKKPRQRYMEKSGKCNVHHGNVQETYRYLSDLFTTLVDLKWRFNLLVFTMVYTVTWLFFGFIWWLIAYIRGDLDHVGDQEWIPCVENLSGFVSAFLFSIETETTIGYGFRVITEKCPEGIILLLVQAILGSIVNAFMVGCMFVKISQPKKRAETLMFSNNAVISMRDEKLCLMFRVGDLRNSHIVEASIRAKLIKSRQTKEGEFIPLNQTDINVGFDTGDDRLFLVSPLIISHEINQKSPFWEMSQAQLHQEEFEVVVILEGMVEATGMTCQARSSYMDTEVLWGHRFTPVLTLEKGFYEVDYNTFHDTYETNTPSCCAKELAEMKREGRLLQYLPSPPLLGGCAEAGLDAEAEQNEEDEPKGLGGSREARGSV
Description: as §1, §2, §3, §4

[3] = test system: BLA neurons (GIRK currents); assay: whole-cell patch-clamp in acute brain slices, basolateral amygdala (BLA) neurons; type: cell-based, rat; settings: 100 ms puff of 100 μM, compared to baseline
Description: Electrophysiological recordings from brain slices containing basolateral amygdala (BLA) neurons: Electrophysiology was performed using 150-200 g male Sprague-Dawley rats (Harlan/Envigo, Indianapolis, IN). Rats were group housed in plastic cages in standard housing conditions with ad libitum access to food and water with 12:12 light/dark cycle (lights on at 07:00 h). All experiments were conducted in accordance with the Guide for the Care and Use of Laboratory Animals (Institute for Laboratory Animal Research, The National Academies Press) and the guidelines of the IUPUI Institutional Animal Care and Use Committee. Rats were anesthetized with isoflurane and immediately decapitated. Brains were then rapidly removed, placed in ice-cold oxygenated artificial cerebrospinal fluid solution (ACSF) and coronal slices ([…]) were prepared containing the amygdala. Slices were incubated at 31° C. for 30 min and then returned to room temperature until recording. [ACSF solution in mM: 130 NaCl; 3.5 KCl; 1.1 KH2PO4; 1.3 MgCl2; 2.5 CaCl2; 30 NaHCO3; 10 glucose, 315 mOsm, 7.4 pH]. Cells were identified for recording at 40× magnification using Scientifica Slicescope microscope under DIC illumination (Scientifica, Uckfield, UK). ACSF was warmed to 30° C. and perfused at a rate of 2-3 ml/min during recordings. Compounds were added to ACSF at desired concentrations. Whole-cell patch-clamp recordings were obtained using standard techniques. Borosilicate glass electrodes (WPI, Sarasota, FL) (resistance 3-6 MΩ) were prepared and used for both recording and baclofen application. [Recording internal solution in mM: 140 K-gluconate; 2 KCl; 3 MgCl2; 10 HEPES; 5 Phosphocreatinine; 2 K-ATP; 0.2 Na-GTP, 290 mOsm, 7.4 pH]. In voltage-clamp mode, the cell was adjusted to −50 mV at the beginning of all experiments and 5 min stable baseline was established before treatment. Picospritzer II (Parker Hannifin, Hollis, NH) was utilized for local application of 100 μM GABA-B agonist baclofen in ACSF to activate GIRKs. Baseline and baclofen-induced currents were averaged from three responses per cell and analyzed using ClampFit software (Molecular Devices, San Jose, CA). […] Several control cells were subjected to baclofen at 2 min intervals for 30 min and consistent responses were observed, thus ruling out time-dependent effects.
The inventors employed whole-cell patch-clamp recording in acute brain slices to examine the effect of GAT1508. The inventors utilized brain slices that included the basolateral amygdala (BLA), a limbic structure that has been extensively described to coordinate the acquisition and expression of fear memories. […] Next, the inventors examined the response of BLA neurons to baclofen, a GABAB-receptor agonist that induces GIRK-mediated potassium currents. […]

Cc1cc(NC(=O)Nc2ccc(Cl)s2)n(-c2ccccc2)n1 [GAT1501, 1-(5-chlorothiophen-2-yl)-3-(3-methyl-1-phenyl-1H-pyrazol-5-yl)urea]
Emax [1]: 96% | selectivity for GIRK1/2 over GIRK1/4 (in words) [1]: retained some selectivity | EC50 [1]: 4.05 ± 0.14 µM | potency/efficacy compared to GAT1508 (in words) [1]: less potent than GAT1508 for GIRK1/2 | EMAX at GIRK1/2 [1]: 2.797±0.18 | activation of GIRK1/4 (in words) [2]: did not show activation of GIRK1/4 at concentrations less than 20 μM; also recorded: negligible

Cc1cc(NC(=O)Nc2cc(Br)cs2)n(-c2ccccc2)n1 [GAT1502, 1-(4-bromothiophen-2-yl)-3-(3-methyl-1-phenyl-1H-pyrazol-5-yl)urea]
Emax [1]: 91% | EC50 [1]: 4.41 ± 0.15 µM | activation of GIRK1/2 (in words) [1]: much poorer activators | EMAX at GIRK1/2 [1]: 2.70±0.20 | Emax [2]: 104% | EC50 [2]: 3.13 ± 0.24 µM | activation of GIRK1/4 (in words) [2]: much poorer activators | EMAX at GIRK1/4 [2]: 1.63±0.09

Cc1cc(NC(=O)Nc2cccs2)n(-c2ccccc2)n1 [GAT1506, 1-(3-methyl-1-phenyl-1H-pyrazol-5-yl)-3-(thiophen-2-yl)urea]
Emax [1]: 155% | selectivity for GIRK1/2 over GIRK1/4 (in words) [1]: lacked selectivity | EC50 [1]: 17.1 ± 0.28 µM | potency/efficacy compared to GAT1508 (in words) [1]: less potent than GAT1508 | EMAX at GIRK1/2 [1]: 3.9±1.04 | Emax [2]: 157% | EC50 [2]: 7.02 ± 0.24 µM | EMAX at GIRK1/4 [2]: 1.95±0.21

Cc1nn(-c2ccccc2)c(NC(=O)Nc2ccc(F)c(F)c2)c1Br [GAT1528]
modulation of GIRK1/2 channels (in words) ([1]; Examples 5 and 6, Xenopus oocytes): no effect on basal activity | modulation of GIRK1/4 channels (in words) [2]: selective for GIRK1/4 inhibition against GIRK1/2 channel activity

Cc1cc(NC(=O)Nc2cnc(Br)s2)n(-c2ccccc2)n1 [GAT1530, 1-(2-bromothiazol-5-yl)-3-(3-methyl-1-phenyl-1H-pyrazol-5-yl)urea]
selectivity for GIRK1/2 over GIRK1/4 (in words) [1]: lack of specificity

Cc1cc(NC(=O)N/C=C/c2ccccc2)n(-c2ccccc2)n1 [GAT1537]
modulation of GIRK1/4 channels (in words) [2]: little or no effect

Cc1cc(NC(=O)Nc2sccc2Br)n(-c2ccccc2)n1 [GAT1570, 1-(3-bromothiophen-2-yl)-3-(3-methyl-1-phenyl-1H-pyrazol-5-yl)urea]
activation of GIRK1/2 (in words) [1]: much poorer activators; also recorded: negligible | activation of GIRK1/4 (in words) [2]: much poorer activators; also recorded: negligible

Cc1cc(NC(=O)Nc2ccc(I)s2)n(-c2ccccc2)n1 [GAT1574, 1-(5-iodothiophen-2-yl)-3-(3-methyl-1-phenyl-1H-pyrazol-5-yl)urea]
activation of GIRK1/2 (in words) [1]: poorer activator than the bromine analog; also recorded: negligible | activation of GIRK1/4 (in words) [2]: poorer activator than the bromine analog; also recorded: negligible

Cc1cc(NC(=O)Nc2ccc(F)s2)n(-c2ccccc2)n1 [GAT1575, 1-(5-fluorothiophen-2-yl)-3-(3-methyl-1-phenyl-1H-pyrazol-5-yl)urea]
Emax [1]: 210% | selectivity for GIRK1/2 over GIRK1/4 (in words) [1]: less selective between GIRK1/2 and GIRK1/4 than GAT1508 | EC50 [1]: 9.39 ± 0.12 µM | potency/efficacy compared to GAT1508 (in words) [1]: highly efficacious but much less potent than GAT1508 | EMAX at GIRK1/2 [1]: 4.92±0.49 | Emax [2]: 192% | EC50 [2]: 11.2 ± 0.25 µM | EMAX at GIRK1/4 [2]: 2.16±0.32

NCC(CC(=O)O)c1ccc(Cl)cc1 (stereo not drawn) [baclofen, reference compound]
current response of BLA neurons (in words) [3]: induced a significant outward current
